Each structure is given as a SMILES string.

One series has as its system Phytophthora infestans. Put plainly: whole plant or invertebrate. The format is in vivo. Particulars: in Solanum lycopersicum, 96 h, read-out: Determination of control effect (preventive value).
In series [1] the test system is Pseudoperonospora cubensis. Nature of the series: Test of examining control effect on Pseudoperonospora cubensis (potted cucumber plants). The format is in vivo. Particulars: 96 h, 10% wettable powder adjusted to 125 ppm, 15 ml/pot sprayed on potted cucumber plants one day before spray inoculation, assessed after 1 day wet chamber and 3 days greenhouse, read-out: Determination of control effect (preventive value) on Pseudoperonospora cubensis. The method in brief:
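Cucumber plants (Sagamihanjiro, 2.5-leaf stage) sprayed with 125 ppm compound solution from 10% wettable powder, 15 ml/pot. One day later, spray-inoculated with P. cubensis conidia (1.0×10^4 cells/ml), kept 1 day at 21° C wet, then 3 days in greenhouse. Preventive value derived from lesion area relative to untreated plants.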

Another series deals with Sphaerotheca fuliginea. Put plainly: Test of examining control effect on Sphaerotheca fuliginea (potted cucumber plants). Particulars: Podosphaera fuliginea, 336 h; 10% wettable powder adjusted to 125 ppm, 15 ml/pot sprayed on potted cucumber plants one day before spray inoculation; assessed after 14 days in greenhouse; read-out: Determination of control effect (preventive value) on Sphaerotheca fuliginea. The series is classed as in vivo. The method, boiled down:
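Cucumber plants (Sagamihanjiro, 2nd leaf stage) sprayed with 125 ppm compound (from 10% wettable powder), inoculated one day later with S. fuliginea conidia (1.0×10^5 cells/ml); lesion area scored after 14 days in greenhouse. Preventive value vs untreated; ≥60% high, <60% low control.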

The compound `Clc1cccc(Cl)c1C#CCCNc1ncnc2ccccc12` [compound 174] had a melting point of 153 to 155 °C. Besides, the pest or weed control at 125 ppm in the series on Phytophthora infestans lay in the range of 60 to 100%. Besides, the pest or weed control at 125 µg/mL in series [1] fell in the range of 60 to 100%. Moreover, the pest or weed control at 125 µg/mL with Sphaerotheca fuliginea was 60 to 100%.
`CC(CC#Cc1cscn1)Nc1ncnc2ccccc12` (centres unmarked) [compound 291] came in with a melting point of 142 to 145 °C. Moreover, in the series on Phytophthora infestans, the pest or weed control at 125 ppm lay in the range of 0 to 60%. For the same compound, the pest or weed control at 125 µg/mL in series [1] was in the range of 60 to 100%. Besides, in the series with Sphaerotheca fuliginea, the pest or weed control at 125 µg/mL was in the range of 60 to 100%.
For `C(#Cc1ccccc1)CCNc1ncnc2[nH]cnc12` [compound 378], the melting point was in the range of 207 to 208 °C. For the same compound, in the series on Phytophthora infestans, the pest or weed control at 125 ppm lay within 0 to 60%. For the same compound, in series [1], the pest or weed control at 125 µg/mL was 0 to 60%. The pest or weed control at 125 µg/mL in the series on Sphaerotheca fuliginea lay in the range of 0 to 60%.
Consider `C=C(C)CCc1ccccc1C#CCCNc1ncnc2ccccc12` [compound 105], for which the melting point lay in the range of 92 to 94 °C. Further, the pest or weed control at 125 ppm in the series on Phytophthora infestans is 60 to 100%. Also, the pest or weed control at 125 µg/mL in series [1] is 60 to 100%. Further, in the series on Sphaerotheca fuliginea, the pest or weed control at 125 µg/mL lay in the range of 60 to 100%.
As to `COCc1cc(F)c(F)cc1C#CCCNc1ncnc2ccccc12` [compound 146], the melting point lay in the range of 121 to 125 °C. For the same compound, the pest or weed control at 125 ppm in the series on Phytophthora infestans was 60 to 100%. Further, the pest or weed control at 125 µg/mL in series [1] was 60 to 100%. Further, in the series with Sphaerotheca fuliginea, the pest or weed control at 125 µg/mL lay in the range of 60 to 100%.
Turning to `C(#Cc1cncs1)CCNc1ncnc2sccc12` [compound 61], the melting point was in the range of 156 to 158 °C. For the same compound, the pest or weed control at 125 ppm in the series with Phytophthora infestans lay within 60 to 100%. Besides, the pest or weed control at 125 µg/mL in series [1] is 60 to 100%. Further, in the series on Sphaerotheca fuliginea, the pest or weed control at 125 µg/mL lay within 60 to 100%.
The compound `C(#Cc1csc(-c2ccsc2)n1)CCNc1ncnc2sccc12` [compound 80] came in with a melting point of 55 to 56 °C. In the series with Phytophthora infestans, the pest or weed control at 125 ppm is 0 to 60%. In addition, in series [1], the pest or weed control at 125 µg/mL was in the range of 60 to 100%. For the same compound, the pest or weed control at 125 µg/mL in the series on Sphaerotheca fuliginea was in the range of 60 to 100%.
`FC(F)(F)c1cccc(C#CCCNc2ncnc3sccc23)c1` [compound 26]: the melting point lay within 123 to 125 °C. The pest or weed control at 125 ppm in the series with Phytophthora infestans is 0 to 60%. Further, the pest or weed control at 125 µg/mL in series [1] fell in the range of 60 to 100%. For the same compound, the pest or weed control at 125 µg/mL with Sphaerotheca fuliginea is 60 to 100%.
The compound `COc1ccc(Oc2nc(C#CCCNc3ncnc4ccccc34)cs2)cc1` [compound 217] yielded a melting point of 150 to 152 °C. Also, the pest or weed control at 125 ppm in the series with Phytophthora infestans was 0 to 60%. For the same compound, the pest or weed control at 125 µg/mL in series [1] is 60 to 100%. In the series with Sphaerotheca fuliginea, the pest or weed control at 125 µg/mL lay within 60 to 100%.
For the compound `C(#Cc1csc(-c2ccccc2)n1)CCNc1ncnc2sccc12` [compound 76, 4-[4-(2-Phenylthiazol-4-yl)-3-butynylamino]thieno[2,3-d]pyrimidine], the melting point was in the range of 134 to 136 °C. Also, the pest or weed control at 125 ppm in the series with Phytophthora infestans lay within 0 to 60%. Also, the pest or weed control at 125 µg/mL in series [1] fell in the range of 60 to 100%. Besides, the pest or weed control at 125 µg/mL with Sphaerotheca fuliginea is 60 to 100%.
`CCOC(=O)c1ccc(C#CCCNc2ncnc3ccccc23)cc1` [compound 129] showed a melting point of 137 to 138 °C. Further, in the series on Phytophthora infestans, the pest or weed control at 125 ppm lay within 0 to 60%. Moreover, the pest or weed control at 125 µg/mL in series [1] was in the range of 60 to 100%. The pest or weed control at 125 µg/mL in the series with Sphaerotheca fuliginea is 0 to 60%.
Compound `Fc1cccc(Oc2nc(C#CCCNc3ncnc4ccccc34)cs2)c1` [compound 225] displayed a melting point of 134 to 136 °C. Further, the pest or weed control at 125 ppm in the series on Phytophthora infestans lay in the range of 60 to 100%. Besides, the pest or weed control at 125 µg/mL in series [1] is 60 to 100%. Further, in the series on Sphaerotheca fuliginea, the pest or weed control at 125 µg/mL lay within 60 to 100%.
`CCOC(=O)c1sc(C#CCCNc2ncnc3ccccc23)nc1C` [compound 214] returned a melting point of 139 to 140 °C. For the same compound, the pest or weed control at 125 ppm in the series with Phytophthora infestans fell in the range of 0 to 60%. Also, in series [1], the pest or weed control at 125 µg/mL lay in the range of 60 to 100%. The pest or weed control at 125 µg/mL with Sphaerotheca fuliginea is 60 to 100%.
Compound `OCc1cnccc1C#CCCNc1ncnc2ccccc12` [compound 201] displayed a melting point of 182 to 186 °C. In addition, in the series on Phytophthora infestans, the pest or weed control at 125 ppm fell in the range of 0 to 60%. Further, in series [1], the pest or weed control at 125 µg/mL lay in the range of 60 to 100%. The pest or weed control at 125 µg/mL with Sphaerotheca fuliginea lay within 60 to 100%.

(Values after US8586505B2 (SDS Biotech K. K., priority 2009, dated 2013).)
